Test system: HCV replicon
Test: HCV replicon replication assay (NPT ELISA) in Huh-7 replicon-containing cells
Assay type: cell-based
Conditions: Hepatitis C virus, 72 h; HCV replicon in Huh-7 cells, three days incubation; read-out: EC50
How it was run: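 Replication was scored by capture ELISA of neomycin phosphotransferase, whose level tracks replicon replication, after graded compound treatment. The cells were Huh-7 harbouring an HCV-IRES/neo/EMCV-IRES/NS3–NS5B/3′-NTR replicon, plated at 6000-7500 cells/well and dosed 24 h later at 60-70% confluence; interferon alpha was the positive control.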

Row | Structure (SMILES) | EC50 [µM]
1 | C=C[C@@H]1C[C@]1(NC(=O)[C@@H]1C[C@@H](Oc2cc(-c3ccccc3)nc3c(OC)cccc23)CN1C(=O)[C@@H](CC(=O)N1CCCCC1)C(C)(C)C)C(=O)NS(=O)(=O)C1CC1 [Compound 231, (2S,4R)-1-((S)-2-tert-butyl-4-oxo-4-(piperidin-1-yl)butanoyl)-N-((2S)-1-(cyclopropyl-sulfonylcarbamoyl)-2-vinylcyclopropyl)-4-(8-methoxy-2-phenylquinolin-4-yloxy)pyrrolidine-2-carboxamide] | < 1
2 | C=C[C@@H]1C[C@]1(NC(=O)[C@@H]1C[C@@H](Oc2cc(-c3ccccc3)nc3cc(OC)ccc23)CN1C(=O)[C@@H](CC(=O)N1CCCCC1c1cc(-c2ccccc2)[nH]n1)C(C)(C)C)C(=O)NS(=O)(=O)C1CC1 (stereo partly drawn) [Compound 232, (2S,4R)-1-((2S)-2-tert-butyl-4-oxo-4-(2-(5-phenyl-1H-pyrazol-3-yl)piperidin-1-yl)butanoyl)-N-((2S)-1-(cyclopropyl-sulfonylcarbamoyl)-2-vinylcyclopropyl)-4-(7-methoxy-2-phenylquinolin-4-yloxy)pyrrolidine-2-carboxamide] | < 1
3 | C=C[C@@H]1C[C@]1(NC(=O)[C@@H]1C[C@@H](Oc2cc(-c3ccccc3)cc3cc(OC)ccc23)CN1C(=O)[C@@H](CC(=O)N1CCCCC1)C(C)(C)C)C(=O)NS(=O)(=O)C1CC1 [Compound 233, (2S,4R)-1-((S)-2-tert-butyl-4-oxo-4-(piperidin-1-yl)butanoyl)-N-((1R)-1-(cyclopropyl-sulfonylcarbamoyl)-2-vinylcyclopropyl)-4-(6-methoxy-3-phenylnaphthalen-1-yloxy)pyrrolidine-2-carboxamide] | < 1
4 | C=C[C@@H]1C[C@]1(NC(=O)[C@@H]1C[C@@H](Oc2cc(-c3ccccc3)nc3c4c(ccc23)CCC4)CN1C(=O)[C@@H](CC(=O)N1CCCCC1)C(C)(C)C)C(=O)NS(=O)(=O)C1CC1 [Compound 235, (2S,4R)-l-((S)-2-tert-butyl-4-oxo-4-(piperidin-l-yl)butanoyl)-N-((2S)-l-(cyclopropyl-sulfonylcarbamoyl)-2-vinylcyclopropyl)-4-(2-phenyl-8,9-dihydro-7H-cyclo-penta[h]quinolin-4-yloxy)pyrrolidine-2-carboxamide] | < 1
5 | C=C[C@@H]1C[C@]1(NC(=O)[C@@H]1C[C@@H](Oc2cc(-c3ccccn3)nc3c4c(ccc23)CCC4)CN1C(=O)[C@@H](CC(=O)N1CCCC(F)(F)C1)C(C)(C)C)C(=O)NS(=O)(=O)C1CC1 [Compound 236, (2S,4R)-1-((S)-2-tert-butyl-4-(3,3-difluoropiperidin-1-yl)-4-oxobutanoyl)-N-((2S)-1-(cyclopropyl-sulfonylcarbamoyl)-2-vinylcyclopropyl)-4-(2-(pyridin-2-yl)-8,9-dihydro-7H-cyclopenta[h]quino-lin-4-yloxy)pyrrolidine-2-carboxamide] | < 1
6 | C=C[C@@H]1C[C@]1(NC(=O)[C@@H]1C[C@@H](Oc2cc(-c3ccccn3)nc3c4c(ccc23)CCC4)CN1C(=O)[C@@H](CC(=O)N1CCC(C(F)(F)F)CC1)C(C)(C)C)C(=O)NS(=O)(=O)C1CC1 [Compound 237, (2S,4R)-1-((S)-2-tert-butyl-4-oxo-4-(4-(trifluoro-methyl)piperidin-1-yl)butanoyl)-N-((2S)-1-(cyclopropyl-sulfonylcarbamoyl)-2-vinylcyclopropyl)-4-(2-(pyridin-2-yl)-8,9-dihydro-7H-cyclopenta[h]quino-lin-4-yloxy)pyrrolidine-2-carboxamide] | < 1
7 | C=C[C@@H]1C[C@]1(NC(=O)[C@@H]1C[C@@H](Oc2cc(-c3csc(NC(C)C)n3)nc3c(C)c(OC)ccc23)CN1C(=O)[C@@H](CC(=O)N1CCC(C(F)(F)F)CC1)C(C)(C)C)C(=O)NS(=O)(=O)C1CC1 [Compound 238, (2S,4R)-1-((S)-2-tert-butyl-4-oxo-4-(4-(trifluoro-methyl)piperidin-1-yl)butanoyl)-N-((2S)-1-(cyclopropyl-sulfonylcarbamoyl)-2-vinylcyclopropyl)-4-(2-(2-(isopropyl-amino)thiazol-4-yl)-7-methoxy-8-methylquinolin-4-yloxy)pyrrolidine-2-carboxamide] | < 1
8 | C=C[C@@H]1C[C@]1(NC(=O)[C@@H]1C[C@@H](Oc2cc(-c3ccccc3)nc3c(C)c(OC)ccc23)CN1C(=O)[C@@H](CC(=O)N1CCCCC1)C(C)(C)C)C(=O)NS(=O)(=O)C1CC1 [Compound 239] | < 1
9 | C=C[C@@H]1C[C@]1(NC(=O)[C@@H]1C[C@@H](Oc2cc(-c3ccccc3)nc3c(C)c(OC)ccc23)CN1C(=O)[C@@H](CC(=O)N1CCC(C(F)(F)F)CC1)C(C)(C)C)C(=O)NS(=O)(=O)C1CC1 [Compound 240, (2S,4R)-1-((S)-2-tert-butyl-4-oxo-4-(4-(trifluoro-methyl)piperidin-1-yl)butanoyl)-N-((1R)-1-(cyclopropyl-sulfonylcarbamoyl)-2-vinylcyclopropyl)-4-(7-methoxy-8-methyl-2-phenylquinolin-4-yloxy)pyrrolidine-2-carboxamide] | < 1
10 | C=C[C@@H]1C[C@]1(NC(=O)[C@@H]1C[C@@H](Oc2cc(-c3ccccc3)nc3c(C)c(OC)ccc23)CN1C(=O)[C@@H](CC(=O)N1CCCC(F)(F)C1)C(C)(C)C)C(=O)NS(=O)(=O)C1CC1 [Compound 241, (2S,4R)-1-((S)-2-tert-butyl-4-(3,3-difluoropiperidin-1-yl)-4-oxobutanoyl)-N-((2S)-1-(cyclopropyl-sulfonylcarbamoyl)-2-vinylcyclopropyl)-4-(7-methoxy-8-methyl-2-phenylquinolin-4-yloxy)pyrrolidine-2-carboxamide] | < 1
11 | C=C[C@@H]1C[C@]1(NC(=O)[C@@H]1C[C@@H](Oc2cc(-c3ccccn3)nc3c4c(ccc23)CCC4)CN1C(=O)[C@@H](CC(=O)N1CCCCC1)C(C)(C)C)C(=O)NS(=O)(=O)C1CC1 [Compound 242, (2S,4R)-1-((S)-2-tert-butyl-4-oxo-4-(piperidin-1-yl)butanoyl)-N-((2S)-1-(cyclopropyl-sulfonylcarbamoyl)-2-vinylcyclopropyl)-4-(2-(pyridin-2-yl)-8,9-dihydro-7H-cyclopenta[h]quino-lin-4-yloxy)pyrrolidine-2-carboxamide] | < 1
12 | C=C[C@@H]1C[C@]1(NC(=O)[C@@H]1C[C@@H](Oc2nc(-c3ccccn3)cc3c(Cl)c(OC)ccc23)CN1C(=O)[C@@H](CC(=O)N1CCCCC1)C(C)(C)C)C(=O)NS(=O)(=O)C1CC1 [Compound 243, (2S,4R)-1-((S)-2-tert-butyl-4-oxo-4-(piperidin-1-yl)butanoyl)-4-(5-chloro-6-methoxy-3-(pyridin-2-yl)isoquinolin-1-yloxy)-N-((2S)-1-(cyclopropyl-sulfonylcarbamoyl)-2-vinylcyclo-propyl)pyrrolidine-2-carboxamide] | < 1
13 | C=C[C@@H]1C[C@]1(NC(=O)[C@@H]1C[C@@H](Oc2nc(-c3ccccn3)cc3c(Cl)c(OC)ccc23)CN1C(=O)[C@@H](CC(=O)N1CCCC(F)(F)C1)C(C)(C)C)C(=O)NS(=O)(=O)C1CC1 [Compound 244, (2S,4R)-1-((S)-2-tert-butyl-4-(3,3-difluoropiperidin-1-yl)-4-oxobutanoyl)-4-(5-chloro-6-methoxy-3-(pyridin-2-yl)isoquinolin-1-yloxy)-N-((2S)-1-(cyclopropyl-sulfonylcarbamoyl)-2-vinylcyclo-propyl)pyrrolidine-2-carboxamide] | < 1
